Measured values from patent US5902794A (priority 1997, dated 1999).
“Also recorded” adds a separate entry of the source. Where two headings read alike, the source gives them in different places.

How the values were obtained:
[1] = system: R^I cAMP receptor protein (LS-174T); assay: photoaffinity labelling of R^I cAMP receptor protein, LS-174T; type: cell-based, human; conditions: 1 mM, 3 days; control 1.0
Procedure: (§1) M is marker proteins of known molecular weight.
(§2) The incubations were carried out at 23° C. for 60 minutes in 96-well immunoplates. The reaction mixtures were then irradiated for 30 seconds at 254 nm, placing a Mineralite UVS-11 hand lamp directly onto the plate. The samples were mixed with 25 microliters of 3× sample buffer (3% SDS, 15% beta-mercaptoethanol, 30 mM Tris, 30% glycerol, 1% bromophenol blue saturated solution), boiled for 3 minutes, and centrifuged at 700×g for five minutes. The samples containing 50-100 micrograms of protein were subjected to 0.05% SDS-12% PAGE. The gels were fixed, dried, and exposed to X-ray films overnight. The protein concentrations were determined by the method of Lowry et al., (J. Biol. Chem. 193: 265-275, 1951) with bovine serum albumin as standard.
(§3) The levels of the receptor proteins are expressed relative to the R^I level in the untreated control cells of MDA-MB-231 and LS-174T, which are each set equal to 1.0 O.D.; the scale was expanded to differentiate the lower intensity bands.

[2] = system: transplantable DMBA-1 and MNA-2 rat mammary carcinomas; assay: short-term assays with transplantable rat mammary carcinomas; type: in vivo; conditions: DB-cAMP pellet
LS-174T = assay: growth of LS-174T cells; type: cell-based; conditions: Homo sapiens, LS174T, 72 h; 1 mM, 3 days
Procedure: as §1
(§4) All breast cancer cell lines were grown in IMEM supplemented with 10% fetal bovine serum, 20 mM HEPES, penicillin-streptomycin, and extra glutamine. Colon carcinoma cell lines were grown in EMEM supplemented with 10% FBS, EMEM, NEAA, HEPES 20 mM, extra glutamine, and penicillin-streptomycin. The cells were grown at 37° C. in humidified incubators in an atmosphere of 5% CO2.
(§5) For cell growth experiments, 2-3×10^5 cells/60 mm dish were seeded, and 24 hours later (Day 0), the medium was removed, and fresh medium and the additives were added then and every 48 hours thereafter The compounds of the present invention were added using 100× concentrated stock solutions. At desired times, cell counts in duplicate were performed on a Coulter counter after harvesting the cells with gentle trypsinization.

[3] = system: R^II cAMP receptor protein (LS-174T); assay: photoaffinity labelling of R^II cAMP receptor protein, LS-174T; type: cell-based, human; conditions: 1 mM, 3 days; relative to control R^I
Procedure: as §1, §2, §3

[4] = system: hormone-dependent breast cancer lines; conditions: millimolar concentrations; previously reported; cited from earlier work
[5] = system: R^I cAMP receptor protein (Molt-4); assay: R^I cAMP receptor protein in Molt-4 leukemic cells; type: cell-based, human; conditions: 1 mmol/L, three days
Text: (§6) M marker proteins of known molecular weight. […] The resulting supernatants were used as cell lysates. […] ND=nondetectable.

[6] = system: R^I cAMP receptor protein (MDA-MB-231); assay: photoaffinity labelling of R^I cAMP receptor protein, MDA-MB-231; type: cell-based, human; conditions: 1 mM, 3 days; control 1.0
Procedure: as §1, §2, §3

c-myc protein = c-myc protein level, Western blotting (FIG. 9B); type: cell-based, human; conditions: 1 mmol/L, three days
Procedure: The cells were grown in suspension culture in RPMI 1640 medium supplemented with 10% fetal bovine serum, penicillin (50 U/ml), streptomycin ([…]), 10 mmol/L HEPES buffer, and extra glutamine. […] Surface antigen analysis of HL-60 cells was performed by flow cytometry using a panel of monoclonal antibodies reactive with either myeloid cells or monocytic cells. Terminal deoxynucleotidyl transferase (TdT) was assayed by an immunoperoxidase method using a TdT fluorescence kit. Western blotting of c-myc protein was performed using c-myc antibody 15206D11 (Scripps Clinic and Research Foundation, LaJolla, Calif.).
as §6

[7] = system: human oat cell lung carcinoma cells; conditions: in vitro; cited from earlier work
neuroblastoma cells = conditions: conflicting studies; cited from earlier work
[8] = system: p21 ras protein (MCF-7 cells); assay: Western blotting of p21 ras protein in MCF-7 cells; type: cell-based, human; conditions: 500 microM
Procedure: Western blotting of p21 protein was performed as described below. […] V is cell lysate from Ha-MuSV-transformed NIH3T3 clone 13-3B-4. M, marker proteins of known molecular weight.
Cellular proteins present in cell extracts were separated by 12% SDS-PAGE and transferred to nitrocellulose sheets in transfer buffer (25 mM Tris, 192 mM glycine, 20% methanol, pH 7.4). Nitrocellulose sheets were washed and first incubated with 3% bovine serum albumin in NTE-NP40 (50 mM Tris-HCl, pH 7.5, 150 mM NaCl, 2 mM EDTA, 0.1% Nonidet P-40) for three hours at 37° C. and then sequentially incubated with medium containing p21 monoclonal antiserum Y13-259 directed against the Ha-MuSV-encoded p21 for sixteen hours at 4° C., rabbit anti-rat IgG for 2.5 hours in an ice-water bath, and 5×10^5 cpm/ml ^125 I-protein A for one hour in an ice-water bath. The nitrocellulose sheets were air-dried and exposed to Kodak XAR film for 12-36 hours at -20° C. Comparison of the resulting autoradiograms with others in which normal rat serum was substituted for p21 monoclonal antibody permitted identification of p21. To provide a reference p21, cell lysates were prepared from NIH 3T3 clone 13-3B-4 that had been transfected with Ha-MuSV DNA.
The levels of p21 protein are expressed relative to the p21 level in the untreated control cells, which is set equal to 1.0 O.D.

[9] = system: R^II cAMP receptor protein (MDA-MB-231); assay: photoaffinity labelling of R^II cAMP receptor protein, MDA-MB-231; type: cell-based, human; conditions: 1 mM, 3 days; relative to control R^I
Procedure: as §1, §2, §3

[10] = system: R^I and R^II cAMP receptor proteins in breast (MDA-MB-231) and colon (LS-174T) cancer cells; assay: R^I and R^II cAMP receptor protein levels in breast and colon cancer lines (FIG. 6); type: cell-based, human; conditions: DBcAMP 1 mM
Procedure: as §1, §2

MDA-MB-231 = assay: growth of MDA-MB-231 cells; type: cell-based; conditions: Homo sapiens, MDA-MB-231, 72 h; 1 mM, 3 days
Procedure: as §1, §4, §5

Molt-4 = assay: growth inhibition of Molt-4; type: cell-based, human
[11] = system: spindle cell sarcoma with multiple metastasis; conditions: cited from earlier work
DMBA-1 = assay: growth of transplantable DMBA-1 rat mammary carcinoma; type: in vivo; conditions: pellet with 10 mg cAMP analogue, day 7
Procedure: DMBA-1, a variant of primary hormonedependent DMBA tumor,
hormoneindependent and transplantable.
8Cl-cAMP and DBcAMP were given as a 20mg pellet consisting of 10 mg of […]

[12] = system: DMBA-induced mammary carcinomas; assay: in vivo growth of DMBA-induced mammary carcinomas in rats; design: species or system rat; conditions: DBcAMP treatment
Procedure: […] |DMBA-induced mammary carcinomas in rats […] | 10 mg. cholesterol), was implanted on day 0 and day 14.

[13] = system: breast (MCF-7) and (LS-174T) colon cancer cell lines; assay: growth inhibition of breast (MCF-7) and colon (LS-174T) cancer cell lines; type: cell-based, human; conditions: 50 micromolar
[14] = system: hormone-dependent mammary tumors / DMBA-induced mammary carcinomas; conditions: cited from earlier work
[15] = system: cultured human fibroblasts; conditions: cited from earlier work

With `CCCC(=O)Nc1ncnc2c1ncn2[C@@H]1O[C@@H]2COP(=O)(O)O[C@H]2[C@H]1OC(=O)CCC` [DBcAMP, N^6,O^2' -dibutyryl-cAMP] the “R^I relative level” value [1] was 0.80 ± 0.10, the sensitivity of tumors [2] was “completely resistant” and the activity at 1000 µM (LS-174T) was 85%. The “R^II relative level” value [3] was 0.15 ± 0.02, the “growth inhibition, hormone-dependent breast cancer lines” value [4] was “growth inhibition only in the hormone-dependent breast cancer lines” and the “R^I receptor protein, in words” value [5] was “remained without appreciable change”. The “R^I relative level” value [6] was 1.0 ± 0.1, the “c-myc protein level, in words” value (c-myc protein) was “did not affect the c-myc protein level” and the differentiation [7] was “differentiated into neurone-like cells”. For the same molecule, the tumorigenicity (neuroblastoma cells) was “reported to be decreased; also recorded: unaltered”, the “p21 level, in words” value [8] was “slight reduction in p21 level” and the “R^II relative level” value [9] was 0.07 ± 0.01. The “R^I and R^II receptor levels, in words” value [10] was “remained unchanged; also recorded: did not appreciably affect the R^I or R^II receptor levels”, the activity at 1000 µM (MDA-MB-231) was 100% and the “50% growth inhibition, in words” value (Molt-4) was 50% growth inhibition could not be obtained. For the same molecule, the tumor size ([11]; 3-6 mg/kg i.v. daily over five hours, days 1-9 and 47-56) was “plateaued and even decreased during both infusion periods”, the histology of tumors ([11]; biopsies days 2, 14, 60) was “evidence of differentiation during the DBcAMP infusion” and the “Change in mean tumor volume” value (DMBA-1) was 2.60 cm^3. For the same molecule, the “Change in mean tumor volume (%)” value (DMBA-1; none = 100) was 99%, the “tumor growth, in words” value [12] was “only arrests this tumor growth without producing regression” and the “growth inhibition, in words” value [13] was “no growth inhibition”. For the same molecule, the “cAMP binding and cAMP-dependent protein kinase activity” value ([14]; cytosol and nuclei, during growth arrest) was “increase”, the estrogen binding ([14]; during growth arrest) was “estrogen binding decreases” and the “translated p21 protein” value ([14]; preceding regression) was “sharp reduction”. The tumor regression ([14]; rat, in vivo) was “regression of hormone-dependent mammary tumors”, the DNA synthesis ([15]; added during first eight hours after serum addition) was “subsequent DNA synthesis was not delayed” and the DNA synthesis ([15]; added more than eight hours after serum addition) was “inhibitory”.
